# Reference: patent US20250066389A1, “HETEROCYCLIC AMIDES AND METHODS OF USING THE SAME” (Rgenta Therapeutics, Inc., priority 2021, published 2025)
# Structures can show the parent of a compound that is named as a salt.
# System: PMS1
# Experiment: Mini-Gene Reporter Assay—PMS1 (firefly luciferase mini-gene reporter transiently transfected into HEK293 cells)
# Format: cell-based
# Settings: Homo sapiens; at 5 uM; mini-gene firefly luciferase reporter in HEK293 cells; read-out: PMS1 % Effect at 5 uM
# Method in brief: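 HEK293 cells transiently transfected with a mini-gene construct (skipped exon with flanking introns/exons fused to firefly luciferase, pcDNA3.1) are incubated with compounds in duplicate. Exon inclusion raises luminescence; EC50 fitted by Levenberg-Marquardt; effect also scored at 5 μM.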
row,SMILES,activation at 5 µM
1,CCOc1cc2nc(C)cn2cc1C(=O)Nc1cnc(N2CC(N)C3(CC3)C2)cn1 (centres unmarked) [Compound 678],> 75%
2,CCOc1cc2nc(C)cn2cc1C(=O)Nc1cnc(NCc2cccc(CNC)c2)cn1 [Compound 679],< 50%
3,CCOc1cc2nc(C)cn2cc1C(=O)Nc1cnc(N2CCC3(CC2)CNCCO3)cn1 [Compound 683],< 50%
4,CCOc1cc2nc(C)cn2cc1C(=O)Nc1cnc(N2CCC3(CCNCC3)C2)cn1 [Compound 685],50 to 75%
5,CCOc1cc2nc(C)cn2cc1C(=O)Nc1cnc(N2C3CCC2CNC3)cn1 [Compound 686],> 75%
6,CCNCC1CCN(c2cnc(NC(=O)c3cn4cc(C)nc4cc3OCC)cn2)CC1 [Compound 687],> 75%
7,CCOc1cc2nc(C)cn2cc1C(=O)Nc1cnc(N2CCC(NC)C2)cn1 (centres unmarked) [Compound 688],> 75%
8,CCOc1cc2nc(C)cn2cc1C(=O)Nc1cnc(N2CCCC(NC)C2)cn1 (centres unmarked) [Compound 690],50 to 75%
9,CCOc1cc2nc(C)cn2cc1C(=O)Nc1cnc(N2CCC(NC)CC2)cn1 [Compound 691],> 75%
10,CCOc1cc2nc(C)cn2cc1C(=O)Nc1cnc(N2CCNC[C@H]2C)cn1 [Compound 692],> 75%
11,CCOc1cc2nc(C)cn2cc1C(=O)Nc1cnc(N2CCNCC2)cn1 [Compound 693],> 75%
12,CCOc1cc2nc(C)cn2cc1C(=O)Nc1cnc(N2CCC(N)C2)cn1 (centres unmarked) [Compound 694],> 75%
13,CCOc1cc2nc(C)cn2cc1C(=O)Nc1cnc(N2CCC(N)CC2)cn1 [Compound 695],> 75%
14,CCOc1cc2nc(C)cn2cc1C(=O)Nc1cnc(N[C@H]2CCNC2)cn1 [Compound 696],50 to 75%
15,CCOc1cc2nc(C)cn2cc1C(=O)Nc1cnc(N2CCNCC2C)cn1 (centres unmarked) [Compound 697],> 75%
16,CCOc1cc2nc(C)cn2cc1C(=O)Nc1cnc(N2CCNC(C)C2)cn1 (centres unmarked) [Compound 698],> 75%
17,"CCOc1cn2nc(C)cc2cc1C(=O)Nc1cnc(N2CCN[C@@H](C)C2)cn1 [Compound 701, 6-ethoxy-2-methyl-N-{5-[(3S)-3-methylpiperazin-1-yl]pyrazin-2-yl}pyrazolo[1,5-a]pyridine-5-carboxamide]",> 75%

# Same assay, conditions: Homo sapiens; mini-gene firefly luciferase reporter in HEK293 cells
row,IC50,SMILES
1,< 1000 nM,"CCOc1cc2nc(C)cn2cc1C(=O)Nc1cnc(N2CCN[C@@H](C)C2)cn1 [Compound 700, 7-ethoxy-2-methyl-N-5-[(3S)-3-methylpiperazin-1-yl]pyrazin-2-ylimidazo[1,2-a]pyridine-6-carboxamide]"
2,< 1000 nM,"CCOc1cc2nc(C)cn2cc1C(=O)Nc1ccc(N2CCN[C@@H](C)C2)cc1F [Compound 702, 7-ethoxy-N-2-fluoro-4-[(3S)-3-methylpiperazin-1-yl]phenyl-2-methylimidazo[1,2-a]pyridine-6-carboxamide]"
3,< 1000 nM,"CCOc1cc2nc(C)cn2cc1C(=O)Nc1ccc(N2CCNC3(CC3)C2)cc1F [Compound 704, N-(4-4,7-diazaspiro[2.5]octan-7-yl-2-fluorophenyl)-7-ethoxy-2-methylimidazo[1,2-a]pyridine-6-carboxamide]"
4,< 1000 nM,"CCOc1cc2nn(C)cc2cc1C(=O)Nc1cnc(N2CCN[C@@H](C)C2)cn1 [Compound 710, (S)-6-ethoxy-2-methyl-N-(5-(3-methylpiperazin-1-yl)pyrazin-2-yl)-2H-indazole-5-carboxamide formate]"
5,< 1000 nM,"CCOc1nc2nc(C)cn2cc1C(=O)Nc1ccc(N2CCNCC2)cn1 [Compound 711, 7-ethoxy-2-methyl-N-(5-(piperazin-1-yl)pyridin-2-yl)imidazo[1,2-a]pyrimidine-6-carboxamide formate]"
6,< 1000 nM,"Cc1cn2cc(C(=O)Nc3ccc(N4CCNCC4)cn3)c(OC3CC3)cc2n1 [Compound 712, 7-cyclopropoxy-2-methyl-N-(5-(piperazin-1-yl)pyridin-2-yl) imidazo[1,2-a]pyridine-6-carboxamide hydrochloride]"
7,< 1000 nM,"COc1cc2nc(C)cn2cc1C(=O)Nc1ccc(N2CCN[C@@H](C)C2)nn1 [Compound 713, (S)-7-methoxy-2-methyl-N-(6-(3-methylpiperazin-1-yl)pyridazin-3-yl)imidazo[1,2-a]pyridine-6-carboxamide hydrochloride]"
8,< 1000 nM,"CCOc1nc2nc(C)cn2cc1C(=O)Nc1ccc(N2C[C@@H](C)N[C@@H](C)C2)nn1 [Compound 714, N-(6-((3R,5S)-3,5-dimethylpiperazin-1-yl)pyridazin-3-yl)-7-ethoxy-2-methylimidazo[1,2-a]pyrimidine-6-carboxamide hydrochloride]"
9,< 1000 nM,"CCOc1nc2nn(C)cc2cc1C(=O)Nc1ccc(N2CCNCC2)nn1 [Compound 715, 6-ethoxy-2-methyl-N-(6-(piperazin-1-yl)pyridazin-3-yl)-2H-pyrazolo[3,4-b]pyridine-5-carboxamide]"
10,< 1000 nM,"CCOc1cc2nn(C)cc2cc1C(=O)Nc1cnc(N2CCN[C@@H](CC)C2)cn1 [Compound 716, (S)-6-ethoxy-N-(5-(3-ethylpiperazin-1-yl)pyrazin-2-yl)-2-methyl-2H-indazole-5-carboxamide HCl Salt]"
11,< 1000 nM,"CCOc1cc2nn(C)cc2cc1C(=O)Nc1ccc(C2CCN[C@@H](C)C2)nn1 (stereo partly drawn) [Compound 717, 6-ethoxy-2-methyl-N-(6-((2S)-2-methylpiperidin-4-yl)pyridazin-3-yl)-2H-indazole-5-carboxamide]"
12,< 1000 nM,"COc1cc2nc(C)cn2cc1C(=O)Nc1ccc(N2CCN[C@@H](C)C2)cn1 [Compound 718, (S)-7-methoxy-2-methyl-N-(5-(3-methylpiperazin-1-yl)pyridin-2-yl)imidazo[1,2-a]pyridine-6-carboxamide formate]"
13,< 1000 nM,"CCOc1cc2nc(C)cn2cc1C(=O)Nc1cnc(N2C[C@@H](C)N[C@@H](C)C2)cn1 [Compound 719, N-(5-((3S,5R)-3,5-dimethylpiperazin-1-yl)pyrazin-2-yl)-7-ethoxy-2-methylimidazo[1,2-a]pyridine-6-carboxamide]"
14,< 1000 nM,"CCOc1cc2nn(C)cc2cc1C(=O)Nc1cnc(N2C[C@@H](C)N[C@@H](C)C2)cn1 [Compound 720, N-(5-((3R,5S)-3,5-dimethylpiperazin-1-yl)pyrazin-2-yl)-6-ethoxy-2-methyl-2H-indazole-5-carboxamide hydrochloride]"
15,1000 to 10000 nM,"CCOc1nc2nc(C)cn2cc1C(=O)Nc1cnc(N2C[C@@H](C)N[C@@H](C)C2)cn1 [Compound 721, N-(5-((3R,5S)-3,5-dimethylpiperazin-1-yl)pyrazin-2-yl)-7-ethoxy-2-methylimidazo[1,2-a]pyrimidine-6-carboxamide hydrochloride]"
16,1000 to 10000 nM,"CCOc1nc2nc(C)cn2cc1C(=O)Nc1cnc(N2CCN[C@@H](C)C2)cn1 [Compound 722, (S)-7-ethoxy-2-methyl-N-(5-(3-methylpiperazin-1-yl)pyrazin-2-yl)imidazo[1,2-a]pyrimidine-6-carboxamide formate]"
17,1000 to 10000 nM,"CCOc1cc2nc(C)cn2cc1C(=O)Nc1ccc(N2CC[C@@H](NC(C)(C)C)C2)nn1 [Compound 723, (R)—N-(6-(3-(tert-butylamino)pyrrolidin-1-yl)pyridazin-3-yl)-7-ethoxy-2-methylimidazo[1,2-a]pyridine-6-carboxamide]"
18,1000 to 10000 nM,"COc1cc2nc(C)cn2cc1C(=O)Nc1ccc(N2C[C@@H](C)N[C@@H](C)C2)cn1 [Compound 724, N-(5-((3R,5S)-3,5-dimethylpiperazin-1-yl)pyridin-2-yl)-7-methoxy-2-methylimidazo[1,2-a]pyridine-6-carboxamide]"
19,1000 to 10000 nM,"CCOc1nc2nc(C)cn2cc1C(=O)Nc1ccc(N2CCNC3(CC3)C2)nn1 [Compound 725, N-(6-(4,7-diazaspiro[2.5]octan-7-yl)pyridazin-3-yl)-7-ethoxy-2-methylimidazo[1,2-a]pyrimidine-6-carboxamide formic acid]"
20,1000 to 10000 nM,"COc1cn2nc(C)cc2cc1C(=O)Nc1ccc(N2CCN[C@@H](C)C2)nn1 [Compound 726, (S)-6-methoxy-2-methyl-N-(6-(3-methylpiperazin-1-yl)pyridazin-3-yl)pyrazolo[1,5-a]pyridine-5-carboxamide hydrochloride]"
21,1000 to 10000 nM,"CCOc1cc2nn(C)cc2cc1C(=O)Nc1ccc(C2CCNCC2)nn1 [Compound 728, 6-ethoxy-2-methyl-N-(6-(piperidin-4-yl)pyridazin-3-yl)-2H-indazole-5-carboxamide hydrochloride]"
22,1000 to 10000 nM,"CCOc1cc2nc(C)cn2cc1C(=O)Nc1ccc(N2CCN(C)CC2)nn1 [Compound 729, 7-ethoxy-2-methyl-N-(6-(4-methylpiperazin-1-yl)pyridazin-3-yl)imidazo[1,2-a]pyridine-6-carboxamide]"
23,1000 to 10000 nM,"CCOc1nc2nn(C)cc2cc1C(=O)Nc1ccc(N2CCNCC2)cn1 [Compound 730, 6-ethoxy-2-methyl-N-(5-(piperazin-1-yl)pyridin-2-yl)-2H-pyrazolo[3,4-b]pyridine-5-carboxamide]"
24,1000 to 10000 nM,"CCOc1nc2nc(C)cn2cc1C(=O)Nc1ccc(N2CCN(C)CC2)nn1 [Compound 731, 7-ethoxy-2-methyl-N-(6-(4-methylpiperazin-1-yl)pyridazin-3-yl)imidazo[1,2-a]pyrimidine-6-carboxamide formic acid]"

row,SMILES,IC50
1,"Cc1cn2cc(C(=O)Nc3ccc(N4CCN[C@@H](C)C4)cc3F)c(OC3CCC3)cc2n1 [Compound 705, 7-cyclobutoxy-N-2-fluoro-4-[(3S)-3-methylpiperazin-1-yl]phenyl-2-methylimidazo[1,2-a]pyridine-6-carboxamide]",< 1000 nM
2,"CCOc1cc2nn(C)cc2cc1C(=O)Nc1ccc(C2=CCNCC2)nn1 [Compound 708, 6-ethoxy-2-methyl-N-(6-(1,2,3,6-tetrahydropyridin-4-yl)pyridazin-3-yl)-2H-indazole-5-carboxamide formate]",< 1000 nM
3,"CCOc1cc2nc(C)cn2cc1C(=O)Nc1ccc(C2=CCNCC2)nn1 [Compound 709, 7-ethoxy-2-methyl-N-(6-(1,2,3,6-tetrahydropyridin-4-yl)pyridazin-3-yl)imidazo[1,2-a]pyridine-6-carboxamide hydrochloride]",< 1000 nM
